Experimental data: patent US20160184274A1, “Methods for inhibiting mesenchymal phenotype after epithelial-to-mesenchymal transition” (Fibrostatin, S.L., priority 2014, published 2016)

Key:
circulating 4T1 cells = test: Cell death / caspase 3 activation in circulating 4T1 cells; assay type: cell-based, Mouse
Protocol: (§1) FIG. 11. T12 targets circulating 4T1 cancer cells. A, Balb/c female mice were inoculated with 4T1 mouse breast cancer cells at mammary fat pads. At day 20 after cell inoculation mice were subjected to PET analysis for metastases detection. White arrows denote metastatic foci at the spinal cord. B, Balb/c female from A were either left untreated (Control), or were treated with T12 in drinking water from day 20. At day 35 blood was seeded in the presence of 6-thioguanine and circulating 4T1 cells selected and further cultured. Shown are phase contrast images of the resulting cultures acquired with an inverted microscope. […] C, circulating 4T1 cells recovered as in B and 4T1 cells were cultured in standard 2D cultures and subjected to RNA extraction, and RNA samples were analyzed by RT-qPCR. Shown are the relative quantities (RQ) of the indicated mRNAs of circulating 4T1 cells using levels from 4T1 cells as reference. […] Dead cells in culture media were quantified by measuring cell size using an automated cell counter (Moxi Z, Orflo). […] E, circulating 4T1 cells recovered as in B or 4T1 cells were cultured in ultra-low binding plates and treated with the indicated concentrations of T12 for 9 days, cells were lysed and analyzed by Western blot using antibodies specific for activated caspase 3. The levels of GAPDH were determined for loading control purposes. […]

4T1 cells = test: Cell death / caspase 3 activation in 4T1 cells; assay type: cell-based, Mouse; conditions: same T12 concentrations as for circulating 4T1 cells; FIG. 11D-E
Protocol: as §1

[1] = system: A549 cells expressing GPBP-EYFP; test: GPBP-induced phenotype transition, Western blot of markers; assay type: cell-based, Human; conditions: T12 10 μM, 24 h; FIG. 4
Protocol: FIG. 4. T12 inhibits GPBP-induced phenotype transition in A549 cultures. A549 cells expressing either GPBP-EYFP fusion protein or EYFP were cultured during 24 h in the presence (+) or absence (−) of T12 (10 μM.) Then cells were lysed and similar amounts of lysates were analyzed by Western blot with antibodies against the indicated proteins. Loading equivalence was confirmed by tubulin expression analysis in each of the individual experiments (not shown). To generate cells expressing GPBP fused to Enhanced Yellow Fluorescent Protein (GPBP-EYFP) or EYFP, A549 cells were transfected either with pEYFP-N1-GPBP construct or with pEYFP-N1 vector (Clontech), expressing GPBP-EYFP and EYFP, respectively. Transfected cells were selected with 400 mg/L of geniticin and clones were isolated with a High SPEED CELL SORTER MOFLO® (Beckman-Coulter) and further cultured. Recombinant protein expression was assessed by immunofluorescence microscopy and by Western blot with anti-GPBP N27 mouse monoclonal antibodies. For Western blot analysis, cells were lysed in TBS supplemented with 1% Triton X-100, 0.1% SDS, 1 mM PMSF, 10 μg/mL leupeptine and 20 mM NaF during 30 min at 4° C. Lysates were centrifuged (16,000×g, 5 min, 4° C.) and supernatants were collected and protein concentration determined (Bio-Rad Protein Assay). Samples were subjected to reducing SDS-PAGE and electro-transference onto PVDF membrane. […]

## COc1ccc(-c2ccc(-c3cccc(C)c3)c(C)c2)c(CCC(=O)O)c1 [T12, 3-[4″-methoxy-3,2′-dimethyl-(1,1′;4′,1″)terphenyl-2″-yl] propionic acid]
Circulating 4T1 cells; 4T1 cells inoculated into mice or cultured in low adherent dishes (3D cultures), FIG. 11
  sensitivity to T12 after further induction of mesenchymal phenotype: more sensitivity to T12
Circulating 4T1 cells; 24 h (dead cells) or 9 days in ultra-low binding plates (caspase 3), FIG. 11D-E
  sensitivity to T12: dead cells and activated caspase 3: more sensitive and underwent apoptotic cell death (caspase 3 activation)
4T1 cells
  sensitivity to T12: dead cells and activated caspase 3: little effect on 4T1 cells
[1]
  effect on GPBP-EYFP-induced changes of vimentin, phospho p70-S6 kinase and E-cadherin: counteracted all these regulatory effects
